Results from patent EP0903346A1, “SYDNONE IMINE DERIVATIVES” (Chugai Seiyaku Kabushiki Kaisha, priority 1995, dated 1997).
Each block holds one molecule with its values, some of them ahead of it.

Columns and labels:
isolated rat aorta = experiment: Test with the use of isolated rat aorta (relaxation of potassium chloride contraction); settings: relaxation of continuous contraction due to 30 mM potassium chloride, thoracic aorta of male Sprague Dawley rats, read-out: Rat aorta IC50
Protocol: The thoracic aorta was taken out from male Sprague Dawley rats weighing 450 to 600 g and cut into circular samples of 2 mm in width. […] The contraction reactions of the samples were isometrically recorded with FD pick-up. After 1 to 1.5 hours of equilibration, 30 mM potassium chloride was added to contract the tissue. […] As the test compounds, the invention compounds obtained in the above Examples were employed.

anesthetized rat = experiment: Blood pressure-lowering effect in anesthetized rat; assay type: in vivo; settings: duodenal administration; for Blood pressure-lowering effect ED30: dose causing a decrease in the blood pressure by 30%; for Blood pressure-lowering effect Half duration: half duration at ED30 (recovery to 50% of the maximum decrease in blood pressure)
Protocol: Male Sprague Dawley rats weighing 280 to 450 g were anesthetized with sodium pentobarbital (50 mg/kg, i.p.) and fixed in the supine position. A canula was inserted into the trachea of each animal. Then the blood pressure of the animal was measured (AP-621G, Nippon Kohden Corp.) through a polyethylene tube (PE50) inserted into the right femoral artery via a pressure transducer (Life Kit DTS, DX-300, Nippon Kohden Corp.) and the heart rate was determined from the pulse wave (AT-610G, Nippon Kohden Corp.). A canula (PE10) for injecting the maintenance anesthetic drug (sodium pentobarbital 20 mg/kg/h) was inserted into the right femoral vein. The abdominal region was medianly sectioned and a canula (PE50 connected to a injection needle 23G) for duodenal drug administration was inserted thereinto and fixed with Aronalpha for surgical use. After 60-90 minutes of recovery period, the drug was administered into duodenum. After administering the drug, the blood pressure was measured until the average blood pressure returned to the level before the administration.
As the indication of the blood pressure-lowering effect of each drug, the dose causing a decrease in the blood pressure by 30%, based on the level before the administration, was calculated from the dose-response curve and employed as the 30% effective dose (ED30). Moreover, the time required for the recovery to the level corresponding to 50% of the maximum decrease in the blood pressure (half duration) was measured at each dose. Then the half duration at the above-mentioned ED30 was calculated and employed as the indication of the lasting time of the blood pressure-lowering effect (half duration at ED30).
As the test compounds, use was made of the compounds of the present invention obtained in the above Examples. Table C summarizes the results. Table C

IC50 (isolated rat aorta): 36 nM
Molecule: O=C(CSC(=O)c1ccccc1)[N-]c1c[n+](N2CCN(C(=O)CSC(=O)c3ccccc3)CC2)no1 [Example 31]

IC50 (isolated rat aorta): 550 nM
Molecule: CC1CCCC(C)N1[n+]1cc([N-]C(=O)CSc2cc(C(C)(C)C)c(O)c(C(C)(C)C)c2)on1 (stereo not shown) [Example 13, N-((3,5-Di-t-butyl-4-hydroxyphenylthio)acetyl)-3-(2,6-dimethylpiperidin-1-yl)sydnonimine]

Molecule: CC(=O)SC[C@@H](C)C(=O)[N-]c1c[n+](N2CCN(C(C)C)CC2)no1 [Example 80, N-((S)-3-(Acetylthio)isobutyryl)-3-(4-isopropylpiperazin-1-yl)sydnonimine]
Blood pressure-lowering effect ED30 (anesthetized rat): 0.6 mg/kg
Blood pressure-lowering effect Half duration (anesthetized rat): 49 min

Molecule: C[C@H](CSC(=O)c1ccccc1)C(=O)[N-]c1c[n+](N2CCN(CC(F)(F)F)CC2)no1 [Example 70, N-((S)-3-(Benzoylthio)isobutyryl)-3-(4-(2,2,2-trifluoroethyl)piperazin-1-yl)sydnonimine]
Blood pressure-lowering effect ED30 (anesthetized rat): 0.7 mg/kg
Blood pressure-lowering effect Half duration (anesthetized rat): 41 min

IC50 (isolated rat aorta): 780 nM
Molecule: COc1cc(CCN2CCN([n+]3cc([N-]C(=O)[C@H](C)CSC(=O)c4ccccc4)on3)CC2)cc(OC)c1OC [Example 45, N-((S)-3-(Benzoylthio)isobutyryl)-3-(4-(2-(3,4,5-trimethoxyphenyl)ethyl)piperazin-1-yl)sydnonimine]

IC50 (isolated rat aorta): 230 nM
Molecule: CC(=O)SCC(=O)[N-]c1c[n+](N2CCN(C(=O)CSC(C)=O)CC2)no1 [Example 38-C, N-((Acetylthio)acetyl)-3-(4-((acetylthio)acetyl)piperazin-1-yl)sydnonimine]

Molecule: CC(C)N1CCN([n+]2cc([N-]C(=O)CCSC(=O)c3ccccc3)on2)CC1 [Example 129, N-(3-(Benzoylthio)propionyl)-3-(4-isopropylpiperazin-1-yl)sydnonimine]
Blood pressure-lowering effect ED30 (anesthetized rat): 1.3 mg/kg
Blood pressure-lowering effect Half duration (anesthetized rat): 42 min

IC50 (isolated rat aorta): 46 nM
Molecule: COc1cc(CN2CCN([n+]3cc([N-]C(=O)CSC(=O)c4ccccc4)on3)CC2)cc(OC)c1OC [Example 49, N-((Benzoylthio)acetyl)-3-(4-(3,4,5-trimethoxyphenylmethyl)piperazin-1-yl)sydnonimine]

Molecule: CCN1CCN([n+]2cc([N-]C(=O)CSC(C)=O)on2)CC1 [Example 85, N-(Acetylthioacetyl)-3-(4-ethylpiperazin-1-yl)sydnonimine]
Blood pressure-lowering effect ED30 (anesthetized rat): 0.3 mg/kg
Blood pressure-lowering effect Half duration (anesthetized rat): 44 min

Molecule: COc1cc(CC(=O)[N-]c2c[n+](N3CCN(C)CC3)no2)cc(OC)c1OC [Example 42, N-((3,4,5-Trimethoxyphenyl)acetyl)-3-(4-methylpiperazin-1-yl)sydnonimine]
Blood pressure-lowering effect ED30 (anesthetized rat): 4.0 mg/kg
Blood pressure-lowering effect Half duration (anesthetized rat): 60 min

Molecule: CCN1CCN([n+]2cc([N-]C(=O)CCSC(C)=O)on2)CC1 [Example 122, N-(3-(Acetylthio)propionyl)-3-(4-ethylpiperazin-1-yl)sydnonimine]
Blood pressure-lowering effect ED30 (anesthetized rat): 0.6 mg/kg
Blood pressure-lowering effect Half duration (anesthetized rat): 48 min

Molecule: CC(=O)SC[C@@H](C)C(=O)[N-]c1c[n+](N2CCN(C)CC2)no1 [Example 78, N-((S)-3-(Acetylthio)isobutyryl)-3-(4-methylpiperazin-1-yl)sydnonimine]
Blood pressure-lowering effect ED30 (anesthetized rat): 1.0 mg/kg
Blood pressure-lowering effect Half duration (anesthetized rat): 40 min

Molecule: CCOC(=O)[N-]c1cn(N2CCOCC2)n[o+]1 [molsidomine, reference compound]
Blood pressure-lowering effect ED30 (anesthetized rat): 0.3 mg/kg
Blood pressure-lowering effect Half duration (anesthetized rat): 39 min

Molecule: CC(=O)N[C@@H](CSC(=O)c1ccc(F)cc1)C(=O)[N-]c1c[n+](N2CCN(C)CC2)no1 [Example 185, N-((R)-2-Acetylamino-3-(4-fluorobenzoylthio)propionyl)-3-(4-methylpiperazin-1-yl)sydnonimine]
Blood pressure-lowering effect ED30 (anesthetized rat): 1.5 mg/kg
Blood pressure-lowering effect Half duration (anesthetized rat): 53 min

Molecule: C[C@H](CSC(=O)c1ccccc1)C(=O)[N-]c1c[n+](N2CCN(Cc3ccccc3)CC2)no1 [Example 18, N-((S)-3-(Benzoylthio)isobutyryl)-3-(4-benzylpiperazin-1-yl)sydnonimine]
Blood pressure-lowering effect ED30 (anesthetized rat): 2.0 mg/kg
Blood pressure-lowering effect Half duration (anesthetized rat): 62 min

Molecule: CCNC(=O)SCCC(=O)[N-]c1c[n+](N2CCN(CC)CC2)no1 [Example 163, N-(3-(Ethylcarbamoylthio)propionyl)-3-(4-ethylpiperazin-1-yl)sydnonimine]
Blood pressure-lowering effect ED30 (anesthetized rat): 0.2 mg/kg
Blood pressure-lowering effect Half duration (anesthetized rat): 44 min

Molecule: CC(=O)N[C@@H](CSC(C)=O)C(=O)[N-]c1c[n+](N2CCN(C)CC2)no1 [Example 181, N-((R)-2-Acetylamino-3-(acetylthio)propionyl)-3-(4-methylpiperazin-1-yl)sydnonimine]
Blood pressure-lowering effect ED30 (anesthetized rat): 0.8 mg/kg
Blood pressure-lowering effect Half duration (anesthetized rat): 60 min

Molecule: Cc1cccc(C)c1C(=O)SCCC(=O)[N-]c1c[n+](N2CCN(C)CC2)no1 [Example 141, N-(3-(2,6-Dimethylbenzoylthio)propionyl)-3-(4-methylpiperazin-1-yl)sydnonimine]
Blood pressure-lowering effect ED30 (anesthetized rat): 0.5 mg/kg
Blood pressure-lowering effect Half duration (anesthetized rat): 48 min

Molecule: CN1CCN([n+]2cc([N-]C(=O)CCCSC(=O)c3ccccc3)on2)CC1 [Example 174, N-(4-(Benzoylthio)butyryl)-3-(4-methylpiperazin-1-yl)sydnonimine]
Blood pressure-lowering effect ED30 (anesthetized rat): 0.5 mg/kg
Blood pressure-lowering effect Half duration (anesthetized rat): 43 min

Molecule: Cc1c(C)c2c(c(C)c1O)CCC(C)(C(=O)SCC(=O)[N-]c1c[n+](N3CCN(C)CC3)no1)O2 (stereo not shown) [Example 191, N-((6-Hydroxy-2,5,7,8-tetramethylchroman-2-carbonylthio)acetyl)-3-(4-methylpiperazin-1-yl)sydnonimine]
Blood pressure-lowering effect ED30 (anesthetized rat): 1.0 mg/kg
Blood pressure-lowering effect Half duration (anesthetized rat): 58 min

Molecule: Cc1cccc(C)c1C(=O)SCC(=O)[N-]c1c[n+](N2CCN(C)CC2)no1 [Example 132, N-((2,6-Dimethylbenzoylthio)acetyl)-3-(4-methylpiperazin-1-yl)sydnonimine]
Blood pressure-lowering effect ED30 (anesthetized rat): 0.7 mg/kg
Blood pressure-lowering effect Half duration (anesthetized rat): 44 min

Molecule: CN1CCN([n+]2cc([N-]C(=O)CCSc3cc(C(C)(C)C)c(O)c(C(C)(C)C)c3)on2)CC1 [Example 179, N-(3-(3,5-Di-t-butyl-4-hydroxyphenylthio)propionyl)-3-(4-methylpiperazin-1-yl)sydnonimine]
Blood pressure-lowering effect ED30 (anesthetized rat): 0.9 mg/kg
Blood pressure-lowering effect Half duration (anesthetized rat): 43 min

Molecule: CN1CCN([n+]2cc([N-]C(=O)CCSC(=O)Nc3ccccc3)on2)CC1 [Example 171, N-(3-(Phenylcarbamoylthio)propionyl)-3-(4-methylpiperazin-1-yl)sydnonimine]
Blood pressure-lowering effect ED30 (anesthetized rat): 0.3 mg/kg
Blood pressure-lowering effect Half duration (anesthetized rat): 45 min

Molecule: CCN1CCN([n+]2cc([N-]C(=O)CCSC(=O)C(C)(C)C)on2)CC1 [Example 155, N-(3-(Pivaloylthio)propionyl)-3-(4-ethylpiperazin-1-yl)sydnonimine]
Blood pressure-lowering effect ED30 (anesthetized rat): 0.2 mg/kg
Blood pressure-lowering effect Half duration (anesthetized rat): 46 min

Molecule: CCN1CCN([n+]2cc([N-]C(=O)CCSC(=O)c3c(F)cccc3F)on2)CC1 [Example 146, N-(3-(2,6-Difluorobenzoylthio)propionyl)-3-(4-ethylpiperazin-1-yl)sydnonimine]
Blood pressure-lowering effect ED30 (anesthetized rat): 0.6 mg/kg
Blood pressure-lowering effect Half duration (anesthetized rat): 45 min

Molecule: 3-(4-Benzylpiperazin-1-yl)-N-((3,4,5-trimethoxyphenyl)acetyl)sydnonimine [Example 17]
Blood pressure-lowering effect ED30 (anesthetized rat): 1.4 mg/kg
Blood pressure-lowering effect Half duration (anesthetized rat): 21 min

Molecule: C[C@H](CSC(=O)c1ccccc1)C(=O)[N-]c1c[n+](N2CCN(C3CCCC3)CC2)no1 [Example 72, N-((S)-3-(Benzoylthio)isobutyryl)-3-(4-cyclopentylpiperazin-1-yl)sydnonimine]
Blood pressure-lowering effect ED30 (anesthetized rat): 1.3 mg/kg
Blood pressure-lowering effect Half duration (anesthetized rat): 47 min

Molecule: CC(=O)N[C@@H](CSC(C)=O)C(=O)[N-]c1c[n+](N2CCN(C(C)C)CC2)no1 [Example 183, N-((R)-2-Acetylamino-3-(acetylthio)propionyl)-3-(4-isopropylpiperazin-1-yl)sydnonimine]
Blood pressure-lowering effect ED30 (anesthetized rat): 1.0 mg/kg
Blood pressure-lowering effect Half duration (anesthetized rat): 47 min

Molecule: CC(=O)SCCC(=O)[N-]c1c[n+](N2CCN(Cc3ccccc3)CC2)no1 [Example 119, N-(3-(Acetylthio)propionyl)-3-(4-benzylpiperazin-1-yl)sydnonimine]
Blood pressure-lowering effect ED30 (anesthetized rat): 1.2 mg/kg
Blood pressure-lowering effect Half duration (anesthetized rat): 49 min

Molecule: CC(C)N1CCN([n+]2cc([N-]C(=O)CCSC(=O)c3ccc(F)cc3)on2)CC1 [Example 137, N-(3-(4-Fluorobenzoylthio)propionyl)-3-(4-isopropylpiperazin-1-yl)sydnonimine]
Blood pressure-lowering effect ED30 (anesthetized rat): 0.6 mg/kg
Blood pressure-lowering effect Half duration (anesthetized rat): 46 min
